The experiment deals with T1, FGFR1 (Homo sapiens, UniProt P11362).
T1 construct: purchased Millipore
Put plainly: ELISA kinase assay, FGFR1 enzymatic activity. The class given is biochemical. Conditions: for inhibition at 10 µM / inhibition at 5 µM / inhibition at 0.01 µM / inhibition at 0.1 µM / inhibition at 1 µM: mean of two separate experiments; for inhibition at 0.01 µM: 0.01 μM (10 nM). The method, then:
The effects of compounds on the activities of indicated (FGFR1 and c-Met) kinases were determined using enzyme-linked immunosorbent assays (ELISAs) with purified recombinant proteins. Briefly, 20 μg/mL poly (Glu, Tyr)4:1 (Sigma, St. Louis, MO, USA) was precoated in 96-well plates as a substrate. A 50-μL aliquot of 10 μmol/L ATP solution diluted in kinase reaction buffer (50 mmol/L HEPES (pH 7.4), 50 mmol/L MgCl2, 0.5 mmol/L MnCl2, 0.2 mmol/L Na3VO4, and 1 mmol/L DTT) was added to each well; 1 μL of various concentrations of compounds diluted in 1% DMSO (v/v) (Sigma) were then added to each reaction well. DMSO (1%, v/v) was used as the negative control. The kinase reaction was initiated by the addition of purified tyrosine kinase proteins FGFR1 (Millipore, Darmstadt, Germany) or c-Met (Millipore) diluted in 49 μL of kinase reaction buffer. After incubation for 60 min at 37 °C, the plate was washed three times with phosphate-buffered saline (PBS) containing 0.1% Tween 20 (T-PBS). Anti-phosphotyrosine (PY99) antibody (Sanra Cruz, Dallas, TX, USA) (100 μL; 1:500, diluted in 5 mg/mL bovine serum albumin (BSA) T-PBS) was then added. After a 30-min incubation at 37 °C, the plate was washed three times, and 100 μL of horseradish peroxidase-conjugated goat anti-mouse IgG (Calbiochem, Shanghai, China) (1:2000, diluted in 5 mg/mL BSA T-PBS) was added. The plate was then incubated at 37 °C for 30 min, and washed three times. A 100-μL aliquot of a solution containing 0.03% H2O2 and 2 mg/mL o-phenylenediamine in 0.1 mol/L citrate buffer (pH 5.5) was added. The reaction was terminated by the addition of 50 μL of 2 mol/L H2SO4 as the color changed, and the plate was analyzed using a multi-well spectrophotometer (SpectraMAX 190, Molecular Devices, Palo Alto, CA, USA) at 490 nm. The inhibition rate (%) was calculated using the following equation:IR = [1 − (A490/A490control)] × 100%.(1) where IR, A490, and A490control are the inhibition rate, the absorbance value of the tested compound at 490 nm, and the absorbance value of the negative control compound at 490 nm, respectively. The IC50 values were calculated from the inhibition curves in two separate experiments.

Structures are written as SMILES.

T1 sequence (P11362 22-822): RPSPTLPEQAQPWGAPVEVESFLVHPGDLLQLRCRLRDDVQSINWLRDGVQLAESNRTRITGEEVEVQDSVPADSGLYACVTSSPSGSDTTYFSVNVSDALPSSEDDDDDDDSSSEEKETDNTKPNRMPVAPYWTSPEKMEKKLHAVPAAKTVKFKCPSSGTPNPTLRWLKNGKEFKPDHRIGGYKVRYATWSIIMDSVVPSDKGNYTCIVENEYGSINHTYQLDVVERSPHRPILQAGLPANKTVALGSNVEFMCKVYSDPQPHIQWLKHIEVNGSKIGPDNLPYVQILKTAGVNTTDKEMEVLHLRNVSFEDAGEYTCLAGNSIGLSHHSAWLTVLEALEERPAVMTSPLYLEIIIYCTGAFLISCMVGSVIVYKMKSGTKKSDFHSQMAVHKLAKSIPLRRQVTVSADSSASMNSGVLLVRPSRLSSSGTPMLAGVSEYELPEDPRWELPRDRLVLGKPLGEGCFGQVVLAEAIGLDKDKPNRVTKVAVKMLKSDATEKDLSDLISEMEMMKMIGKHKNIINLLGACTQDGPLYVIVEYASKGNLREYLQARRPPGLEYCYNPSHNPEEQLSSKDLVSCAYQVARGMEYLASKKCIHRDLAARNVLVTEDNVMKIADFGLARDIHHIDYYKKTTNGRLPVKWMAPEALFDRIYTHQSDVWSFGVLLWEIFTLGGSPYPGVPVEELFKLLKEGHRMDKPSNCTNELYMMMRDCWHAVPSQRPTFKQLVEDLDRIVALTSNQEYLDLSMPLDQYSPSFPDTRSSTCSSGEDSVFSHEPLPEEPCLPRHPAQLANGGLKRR

Take `Cn1cc(-c2cnc3cnn(S(=O)(=O)c4c(Cl)nc5sccn45)c3c2)cn1` [Compound 5, 6-chloro-5-((6-(1-methyl-1H-pyrazol-4-yl)-1H-pyrazolo[4,3-b]pyridin-1-yl)sulfonyl)imidazo[2,1-b]thiazole]: the inhibition at 10 µM was > 50%.
`Cn1cc(-c2cnc3ccn(S(=O)(=O)c4c(Cl)nc5sccn45)c3n2)cn1` [Compound 9, 6-Chloro-5-((3-(1-methyl-1H-pyrazol-4-yl)-5H-pyrrolo[2,3-b]pyrazin-5-yl)sulfonyl)imidazo[2,1-b]thiazole] came in with an inhibition at 5 µM of 83.7% and an inhibition at 10 µM of 92.5%.
Molecule `Cn1cc(-c2cnc3ccn(S(=O)(=O)c4cnn5cccnc45)c3n2)cn1` [Compound 10, 3-(1-Methyl-1H-pyrazol-4-yl)-5-(pyrazolo[1,5-a]pyrimidin-3-ylsulfonyl)-5H-pyrrolo[2,3-b]pyrazine] gave an inhibition at 5 µM of 77% and an inhibition at 10 µM of 91%.
As to `Cn1cnc(S(=O)(=O)n2ccc3ncc(-c4cnn(C)c4)nc32)c1` [Compound 11, 5-((1-Methyl-1H-imidazol-4-yl)sulfonyl)-3-(1-methyl-1H-pyrazol-4-yl)-5H-pyrrolo[2,3-b]pyrazine], testing at 5 µM gave an inhibition of 58.1% and the inhibition at 10 µM was found to be 86%.
The corresponding values for `Cn1cc(-c2cnc3ccn(S(=O)(=O)c4cn(CCF)cn4)c3n2)cn1` [Compound 12, 5-((1-(2-Fluoroethyl)-1H-imidazol-4-yl)sulfonyl)-3-(1-methyl-1H-pyrazol-4-yl)-5H-pyrrolo[2,3-b]pyrazine] are 68.9% and 89%.
In turn, `O=S(=O)(c1cn(CCF)cn1)n1ccc2ncc(-c3cnn(C4CC4)c3)nc21` [Compound 14, 3-(1-Cyclopropyl-1H-pyrazol-4-yl)-5-((1-(2-fluoroethyl)-1H-imidazol-4-yl)sulfonyl)-5H-pyrrolo[2,3-b]pyrazine] registered an inhibition at 0.01 µM of 4.7%, an inhibition at 0.1 µM of 2.2% and an inhibition at 1 µM of 2.8%. Further, the “FGFR1 activity (in words)” value (FGFR1 enzymatic activity, Table 3) is on record as “lost the FGFR1 activity”.
`CC(=O)n1cc(-c2cnc3ccn(S(=O)(=O)c4cn(CCF)cn4)c3n2)cn1` [Compound 15, 1-(4-(5-((1-(2-fluoroethyl)-1H-imidazol-4-yl)sulfonyl)-5H-pyrrolo[2,3-b]pyrazin-3-yl)-1H-pyrazol-1-yl)ethan-1-one] had an inhibition at 0.01 µM of 35.9%, an inhibition at 0.1 µM of 25.9% and an inhibition at 1 µM of 70.9%.
As for `CCC(=O)n1cc(-c2cnc3ccn(S(=O)(=O)c4cn(CCF)cn4)c3n2)cn1` [Compound 16, 1-(4-(5-((1-(2-Fluoroethyl)-1H-imidazol-4-yl)sulfonyl)-5H-pyrrolo[2,3-b]pyrazin-3-yl)-1H-pyrazol-1-yl)propan-1-one], the inhibition at 0.01 µM was determined as 15.1%, the inhibition at 0.1 µM came to 55.8% and the inhibition at 1 µM worked out at 94.6%.
In the case of `CC(=O)Cn1cc(-c2cnc3ccn(S(=O)(=O)c4cn(CCF)cn4)c3n2)cn1` [Compound 18, 1-(4-(5-((1-(2-Fluoroethyl)-1H-imidazol-4-yl)sulfonyl)-5H-pyrrolo[2,3-b]pyrazin-3-yl)-1H-pyrazol-1-yl)propan-2-one], the inhibition at 0.01 µM was found to be 24.6%, testing at 0.1 µM gave an inhibition of 13.3% and the inhibition at 1 µM came to 22.6%.
For `COC(=O)Cn1cc(-c2cnc3ccn(S(=O)(=O)c4cn(CCF)cn4)c3n2)cn1` [Compound 19, Methyl 2-(4-(5-((1-(2-fluoroethyl)-1H-imidazol-4-yl)sulfonyl)-5H-pyrrolo[2,3-b]pyrazin-3-yl)-1H-pyrazol-1-yl)acetate] the same measures were 7.3%, 12% and 40.7%.
The corresponding values for `CCOC(=O)Cn1cc(-c2cnc3ccn(S(=O)(=O)c4cn(CCF)cn4)c3n2)cn1` [Compound 20, Ethyl 2-(4-(5-((1-(2-fluoroethyl)-1H-imidazol-4-yl)sulfonyl)-5H-pyrrolo[2,3-b]pyrazin-3-yl)-1H-pyrazol-1-yl)acetate] are 7.2%, 5.4% and 49.6%.
For `CNC(=O)Cn1cc(-c2cnc3ccn(S(=O)(=O)c4cn(CCF)cn4)c3n2)cn1` [Compound 21, 2-(4-(5-((1-(2-Fluoroethyl)-1H-imidazol-4-yl)sulfonyl)-5H-pyrrolo[2,3-b]pyrazin-3-yl)-1H-pyrazol-1-yl)-N-methylacetamide] the same measures were 12.5%, 14.9% and 65.6%.
Molecule `CN(C)C(=O)Cn1cc(-c2cnc3ccn(S(=O)(=O)c4cn(CCF)cn4)c3n2)cn1` [Compound 22, 2-(4-(5-((1-(2-Fluoroethyl)-1H-imidazol-4-yl)sulfonyl)-5H-pyrrolo[2,3-b]pyrazin-3-yl)-1H-pyrazol-1-yl)-N,N-dimethylacetamide] displayed an inhibition at 0.01 µM of 0.4%, an inhibition at 0.1 µM of 2.5% and an inhibition at 1 µM of 15.3%.
For `CS(=O)(=O)n1cc(-c2cnc3ccn(S(=O)(=O)c4cn(CCF)cn4)c3n2)cn1` [Compound 23, 5-((1-(2-Fluoroethyl)-1H-imidazol-4-yl)sulfonyl)-3-(1-(methylsulfonyl)-1H-pyrazol-4-yl)-5H-pyrrolo[2,3-b]pyrazine] the same measures were 20.9%, 37.1% and 82.3%.
For `O=S(=O)(c1cn(CCF)cn1)n1ccc2ncc(-c3cnn(S(=O)(=O)C4CC4)c3)nc21` [Compound 24, 3-(1-(Cyclopropylsulfonyl)-1H-pyrazol-4-yl)-5-((1-(2-fluoroethyl)-1H-imidazol-4-yl)sulfonyl)-5H-pyrrolo[2,3-b]pyrazine] the same measures were 16.6%, 13.5% and 29.5%.
The corresponding values for `COC(=O)C(C(=O)OC)n1cc(-c2cnc3ccn(S(=O)(=O)c4cn(CCF)cn4)c3n2)cn1` [Compound 25, Dimethyl 2-(4-(5-((1-(2-fluoroethyl)-1H-imidazol-4-yl)sulfonyl)-5H-pyrrolo[2,3-b]pyrazin-3-yl)-1H-pyrazol-1-yl)malonate] are 23.5%, 46.5% and 83%.
On to `CCOC(=O)C(C(=O)OCC)n1cc(-c2cnc3ccn(S(=O)(=O)c4cn(CCF)cn4)c3n2)cn1` [Compound 26, Diethyl 2-(4-(5-((1-(2-fluoroethyl)-1H-imidazol-4-yl)sulfonyl)-5H-pyrrolo[2,3-b]pyrazin-3-yl)-1H-pyrazol-1-yl)malonate], for which testing at 0.01 µM gave an inhibition of 26.8%, the inhibition at 0.1 µM turned out to be 33.6% and the inhibition at 1 µM worked out at 69%.
The corresponding values for `CC(C)n1cnc(S(=O)(=O)n2ccc3ncc(-c4cn[nH]c4)nc32)c1` [Compound 30] are 40.4%, 77.1% and 94.5%.
In the case of `CC(C)Cn1cnc(S(=O)(=O)n2ccc3ncc(-c4cn[nH]c4)nc32)c1` [Compound 31, 5-((1-Isobutyl-1H-imidazol-4-yl)sulfonyl)-3-(1H-pyrazol-4-yl)-5H-pyrrolo[2,3-b]pyrazine], 0.01 µM produced 13.9% inhibition, testing at 0.1 µM gave an inhibition of 19.9% and testing at 1 µM gave an inhibition of 37.1%.
`O=S(=O)(c1cn(C2CCCC2)cn1)n1ccc2ncc(-c3cn[nH]c3)nc21` [Compound 32, 5-((1-Cyclopentyl-1H-imidazol-4-yl)sulfonyl)-3-(1H-pyrazol-4-yl)-5H-pyrrolo[2,3-b]pyrazine] yielded an inhibition at 0.01 µM of 4.9%, an inhibition at 0.1 µM of 20.1% and an inhibition at 1 µM of 71.7%.
For the molecule `CNC(=O)Cn1cnc(S(=O)(=O)n2ccc3ncc(-c4cn[nH]c4)nc32)c1` [Compound 33, 2-(4-((3-(1H-Pyrazol-4-yl)-5H-pyrrolo[2,3-b]pyrazin-5-yl)sulfonyl)-1H-imidazol-1-yl)-N-methylacetamide], the inhibition at 0.01 µM worked out at 19.9%, at 0.1 µM the inhibition was 43.8% and the inhibition at 1 µM worked out at 82.4%.
`O=S(=O)(c1cnn2cccnc12)n1ccc2ncc(-c3cn[nH]c3)nc21` [Compound 34, 3-(1H-Pyrazol-4-yl)-5-(pyrazolo[1,5-a]pyrimidin-3-ylsulfonyl)-5H-pyrrolo[2,3-b]pyrazine] registered an inhibition at 0.1 µM of 26.4% and an inhibition at 1 µM of 73.9%.

The values are drawn from paper PMC6017193, “Structure-Based Discovery of a Series of 5H-Pyrrolo[2,3-b]pyrazine FGFR Kinase Inhibitors” (Molecules : A Journal of Synthetic Chemistry and Natural …, 2018).
